According to the supplement of paper PMC10627819:

Legend:
Test in all cases: fitness (endpoint OD595 vs no drug) (fraction); higher = more growth
S. aureus DSM 20231 = system: S. aureus DSM 20231
Method in brief: (§1)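 With the first reading as background, OD595 was measured every 30 min for 14 h in 384-well plates kept at 37 °C and inoculated at OD595 0.01. TSB, LB Lennox or CY was the medium. Fitness is the optical density at the transition into stationary phase divided by the robust mean of no-drug control wells, with a cap of 1.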

S. aureus Newman = system: S. aureus Newman
Method in brief: as §1

S. pneumoniae D39V = system: S. pneumoniae D39V
Method in brief: as §1
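Note: OD595 on entry to stationary phase over no-drug wells; at most 1.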

CO[C@@]12[C@H](COC(N)=O)C3=C(C(=O)C(C)=C(N)C3=O)N1C[C@@H]1N[C@@H]12 [Mitomycin C] + CC1=C\[C@@H](O)CC(=O)Cc2nc(co2)C(=O)N2CCC=C2C(=O)O[C@H](C(C)C)[C@H](C)/C=C/C(=O)NC\C=C\1 [Virginiamycin M1]
Conditions | fitness
S. aureus DSM 20231, first compound 0.0156 µg/mL, partner 0.0625 µg/mL | 0.697
S. aureus DSM 20231, first compound 0.0156 µg/mL, partner 0.125 µg/mL | 0.712
S. aureus DSM 20231, first compound 0.0156 µg/mL, partner 0.25 µg/mL | 0.747
S. aureus DSM 20231, first compound 0.0312 µg/mL, partner 0.0625 µg/mL | 0.676
S. aureus DSM 20231, first compound 0.0312 µg/mL, partner 0.125 µg/mL | 0.719
S. aureus DSM 20231, first compound 0.0312 µg/mL, partner 0.25 µg/mL | 0.714
S. aureus DSM 20231, first compound 0.0625 µg/mL, partner 0.0625 µg/mL | 0.576
S. aureus DSM 20231, first compound 0.0625 µg/mL, partner 0.125 µg/mL | 0.579
S. aureus DSM 20231, first compound 0.0625 µg/mL, partner 0.25 µg/mL | 0.578
S. pneumoniae D39V, first compound 0.001075 µg/mL, partner 0.5 µg/mL | 0.966
S. pneumoniae D39V, first compound 0.001075 µg/mL, partner 1 µg/mL | 0.929
S. pneumoniae D39V, first compound 0.001075 µg/mL, partner 2 µg/mL | 0.928
S. pneumoniae D39V, first compound 0.002 µg/mL, partner 2 µg/mL | 0.808
S. pneumoniae D39V, first compound 0.00215 µg/mL, partner 0.5 µg/mL | 0.945
S. pneumoniae D39V, first compound 0.00215 µg/mL, partner 1 µg/mL | 0.947
S. pneumoniae D39V, first compound 0.00215 µg/mL, partner 2 µg/mL | 0.905
S. pneumoniae D39V, first compound 0.004 µg/mL, partner 2 µg/mL | 0.783
S. pneumoniae D39V, first compound 0.0043 µg/mL, partner 0.5 µg/mL | 0.856
S. pneumoniae D39V, first compound 0.0043 µg/mL, partner 1 µg/mL | 0.839
S. pneumoniae D39V, first compound 0.0043 µg/mL, partner 2 µg/mL | 0.835
S. pneumoniae D39V, first compound 0.008 µg/mL, partner 2 µg/mL | 0.682

fitness, one replicate
Conditions | partner 0.0625 µg/mL | partner 0.125 µg/mL | partner 0.15 µg/mL | partner 0.25 µg/mL | partner 0.3 µg/mL | partner 0.5 µg/mL | partner 1 µg/mL | partner 2 µg/mL
S. aureus DSM 20231, first compound 0.0156 µg/mL | – | – | – | – | – | 0.774 | 0.825 | –
S. aureus DSM 20231, first compound 0.0312 µg/mL | – | – | – | – | – | 0.681 | 0.701 | –
S. aureus DSM 20231, first compound 0.0625 µg/mL | – | – | – | – | – | 0.515 | 0.611 | –
S. aureus Newman, first compound 0.0156 µg/mL | 0.71 | 0.702 | – | 0.681 | – | 0.66 | 0.667 | 0.593
S. aureus Newman, first compound 0.0312 µg/mL | 0.683 | 0.662 | – | 0.761 | – | 0.657 | 0.602 | 0.544
S. aureus Newman, first compound 0.0625 µg/mL | 0.564 | 0.597 | – | 0.583 | – | 0.564 | 0.54 | 0.433
S. pneumoniae D39V, first compound 0.002 µg/mL | – | – | 0.927 | – | 0.894 | 0.936 | 0.878 | –
S. pneumoniae D39V, first compound 0.004 µg/mL | – | – | 0.849 | – | 0.823 | 0.887 | 0.854 | –
S. pneumoniae D39V, first compound 0.008 µg/mL | – | – | 0.791 | – | 0.799 | 0.767 | 0.626 | –

CO[C@@]12[C@H](COC(N)=O)C3=C(C(=O)C(C)=C(N)C3=O)N1C[C@@H]1N[C@@H]12 [Mitomycin C] + COc1c(N2C[C@@H]3CCCN[C@@H]3C2)c(F)cc2c(=O)c(C(=O)O)cn(C3CC3)c12 [Moxifloxacin]
Conditions | fitness
S. aureus DSM 20231, first compound 0.0156 µg/mL, partner 0.0075 µg/mL | 0.677
S. aureus DSM 20231, first compound 0.0156 µg/mL, partner 0.015 µg/mL | 0.675
S. aureus DSM 20231, first compound 0.0156 µg/mL, partner 0.03 µg/mL | 0.543
S. aureus DSM 20231, first compound 0.0312 µg/mL, partner 0.0075 µg/mL | 0.703
S. aureus DSM 20231, first compound 0.0312 µg/mL, partner 0.015 µg/mL | 0.624
S. aureus DSM 20231, first compound 0.0312 µg/mL, partner 0.03 µg/mL | 0.506
S. aureus DSM 20231, first compound 0.0625 µg/mL, partner 0.0075 µg/mL | 0.557
S. aureus DSM 20231, first compound 0.0625 µg/mL, partner 0.015 µg/mL | 0.504
S. aureus DSM 20231, first compound 0.0625 µg/mL, partner 0.03 µg/mL | 0.371
S. aureus Newman, first compound 0.0156 µg/mL, partner 0.0075 µg/mL | 0.63
S. aureus Newman, first compound 0.0312 µg/mL, partner 0.0075 µg/mL | 0.59
S. aureus Newman, first compound 0.0312 µg/mL, partner 0.03 µg/mL | 0.0632
S. aureus Newman, first compound 0.0625 µg/mL, partner 0.0075 µg/mL | 0.32
S. aureus Newman, first compound 0.0625 µg/mL, partner 0.03 µg/mL | 0.0334
S. pneumoniae D39V, first compound 0.001075 µg/mL, partner 0.0037 µg/mL | 0.878
S. pneumoniae D39V, first compound 0.001075 µg/mL, partner 0.0075 µg/mL | 0.902
S. pneumoniae D39V, first compound 0.001075 µg/mL, partner 0.015 µg/mL | 0.869
S. pneumoniae D39V, first compound 0.002 µg/mL, partner 0.005 µg/mL | 0.895
S. pneumoniae D39V, first compound 0.002 µg/mL, partner 0.01 µg/mL | 0.902
S. pneumoniae D39V, first compound 0.002 µg/mL, partner 0.02 µg/mL | 0.769
S. pneumoniae D39V, first compound 0.00215 µg/mL, partner 0.0037 µg/mL | 0.846
S. pneumoniae D39V, first compound 0.00215 µg/mL, partner 0.0075 µg/mL | 0.805
S. pneumoniae D39V, first compound 0.00215 µg/mL, partner 0.015 µg/mL | 0.813
S. pneumoniae D39V, first compound 0.004 µg/mL, partner 0.005 µg/mL | 0.838
S. pneumoniae D39V, first compound 0.004 µg/mL, partner 0.01 µg/mL | 0.807
S. pneumoniae D39V, first compound 0.004 µg/mL, partner 0.02 µg/mL | 0.727
S. pneumoniae D39V, first compound 0.0043 µg/mL, partner 0.0037 µg/mL | 0.665
S. pneumoniae D39V, first compound 0.0043 µg/mL, partner 0.0075 µg/mL | 0.691
S. pneumoniae D39V, first compound 0.0043 µg/mL, partner 0.015 µg/mL | 0.666
S. pneumoniae D39V, first compound 0.008 µg/mL, partner 0.005 µg/mL | 0.673
S. pneumoniae D39V, first compound 0.008 µg/mL, partner 0.01 µg/mL | 0.72
S. pneumoniae D39V, first compound 0.008 µg/mL, partner 0.02 µg/mL | 0.637

fitness, S. aureus DSM 20231, one replicate
Conditions | first compound 0.0156 µg/mL | first compound 0.0312 µg/mL | first compound 0.0625 µg/mL
partner 0.06 µg/mL | 0.674 | 0.603 | 0.512
partner 0.12 µg/mL | 0.413 | 0.302 | 0.198

CO[C@@]12[C@H](COC(N)=O)C3=C(C(=O)C(C)=C(N)C3=O)N1C[C@@H]1N[C@@H]12 [Mitomycin C] + CN1C2=CC=CC=C2N=C3C1=CC=CC3=O [Pyocyanin]
fitness
Conditions | first compound 0.001075 µg/mL | first compound 0.00215 µg/mL | first compound 0.0043 µg/mL | first compound 0.0156 µg/mL | first compound 0.0312 µg/mL | first compound 0.0625 µg/mL
S. aureus DSM 20231, partner 1.25 µg/mL | – | – | – | 0.704 | 0.73 | 0.573
S. aureus DSM 20231, partner 2.5 µg/mL | – | – | – | 0.668 | 0.691 | 0.555
S. aureus DSM 20231, partner 5 µg/mL | – | – | – | 0.547 | 0.543 | 0.414
S. aureus Newman, partner 1.25 µg/mL | – | – | – | 0.648 | 0.614 | 0.49
S. aureus Newman, partner 2.5 µg/mL | – | – | – | 0.558 | 0.58 | 0.406
S. aureus Newman, partner 5 µg/mL | – | – | – | 0.265 | 0.239 | 0.0918
S. pneumoniae D39V, partner 0.325 µg/mL | 0.964 | 0.984 | 0.847 | – | – | –
S. pneumoniae D39V, partner 0.65 µg/mL | 0.964 | 0.975 | 0.844 | – | – | –
S. pneumoniae D39V, partner 1.3 µg/mL | 0.726 | 0.721 | 0.621 | – | – | –

fitness, S. pneumoniae D39V, one replicate
Conditions | first compound 0.002 µg/mL | first compound 0.004 µg/mL | first compound 0.008 µg/mL
partner 0.325 µg/mL | 0.853 | 0.77 | 0.642
partner 0.65 µg/mL | 0.835 | 0.802 | 0.744

CO[C@@]12[C@H](COC(N)=O)C3=C(C(=O)C(C)=C(N)C3=O)N1C[C@@H]1N[C@@H]12 [Mitomycin C] + CCN(CC)CCOC(=O)c1ccc(N)cc1 [Procaine]
fitness
Conditions | first compound 0.001075 µg/mL | first compound 0.00215 µg/mL | first compound 0.0043 µg/mL | first compound 0.0156 µg/mL | first compound 0.0312 µg/mL | first compound 0.0625 µg/mL
S. aureus DSM 20231, partner 85.5 µg/mL | – | – | – | 0.724 | 0.668 | 0.533
S. aureus DSM 20231, partner 171 µg/mL | – | – | – | 0.796 | 0.753 | 0.572
S. aureus DSM 20231, partner 342 µg/mL | – | – | – | 0.754 | 0.743 | 0.576
S. aureus Newman, partner 85.5 µg/mL | – | – | – | 0.768 | 0.74 | 0.595
S. aureus Newman, partner 171 µg/mL | – | – | – | 0.765 | 0.695 | 0.582
S. aureus Newman, partner 342 µg/mL | – | – | – | 0.772 | 0.686 | 0.565
S. pneumoniae D39V, partner 85.5 µg/mL | 0.966 | 0.935 | 0.844 | – | – | –
S. pneumoniae D39V, partner 171 µg/mL | 0.929 | 0.939 | 0.814 | – | – | –
S. pneumoniae D39V, partner 342 µg/mL | 0.937 | 0.951 | 0.826 | – | – | –

fitness, S. pneumoniae D39V, one replicate
Conditions | first compound 0.002 µg/mL | first compound 0.004 µg/mL | first compound 0.008 µg/mL
partner 85.5 µg/mL | 0.923 | 0.885 | 0.633
partner 171 µg/mL | 0.885 | 0.847 | 0.641
partner 342 µg/mL | 0.818 | 0.812 | 0.645

CO[C@@]12[C@H](COC(N)=O)C3=C(C(=O)C(C)=C(N)C3=O)N1C[C@@H]1N[C@@H]12 [Mitomycin C] + CN(N=O)C(=O)N[C@@H](C=O)[C@@H](O)[C@H](O)[C@H](O)CO [Streptozotocin]
fitness
Conditions | first compound 0.001075 µg/mL | first compound 0.00215 µg/mL | first compound 0.0043 µg/mL | first compound 0.0156 µg/mL | first compound 0.0312 µg/mL | first compound 0.0625 µg/mL
S. aureus DSM 20231, partner 0.15 µg/mL | – | – | – | 0.706 | 0.656 | 0.541
S. aureus DSM 20231, partner 0.3 µg/mL | – | – | – | 0.633 | 0.645 | 0.51
S. aureus DSM 20231, partner 0.6 µg/mL | – | – | – | 0.571 | 0.56 | 0.433
S. aureus Newman, partner 0.15 µg/mL | – | – | – | 0.654 | 0.578 | 0.433
S. aureus Newman, partner 0.3 µg/mL | – | – | – | 0.615 | 0.548 | 0.379
S. aureus Newman, partner 0.6 µg/mL | – | – | – | 0.462 | 0.381 | 0.185
S. pneumoniae D39V, partner 1.2 µg/mL | 0.899 | 0.84 | 0.74 | – | – | –
S. pneumoniae D39V, partner 2.4 µg/mL | 0.911 | 0.886 | 0.777 | – | – | –
S. pneumoniae D39V, partner 4.8 µg/mL | 0.915 | 0.848 | 0.603 | – | – | –

fitness, S. pneumoniae D39V, one replicate
Conditions | first compound 0.002 µg/mL | first compound 0.004 µg/mL | first compound 0.008 µg/mL
partner 1.2 µg/mL | 0.815 | 0.769 | 0.525
partner 2.4 µg/mL | 0.796 | 0.739 | 0.588
partner 4.8 µg/mL | 0.653 | 0.597 | 0.347
